Data as given in patent US12186398B2, “Non-ionic PVP-PLA block copolymers and liquid pharmaceutical compositions derived therefrom” (ALTUS FORMULATION INC., priority 2017, dated 2025).
Where two headings read alike, the source gives them in different places.

Columns and labels:
[1] = human iv FA, values from project 1 report; cited from earlier work
[2] = Extrapolation to human IV 2 compartmental PK parameters; conditions: estimated human iv, PPI 1501 by rat difference ratio, solution from literature oral PK
Excerpt: Both sets of rodent data were then extrapolated using published human FLU PK parameters to estimate the PK of FLU post IV administration of PPI 1501 or non-formulated FLU to humans.
Assuming the plasma PK profile of FLU mediated by IV PPI 1501 in the rat is translatable to human, i.e. that the same PK parameter difference ratios for FLU in PPI 1501 observed in the rat apply in humans, then the human IV PK parameters for FLU in PPI 1501 can be estimated. This may be achieved by simple multiplication of the difference ratios provided in Table 41 (last column) to again obtain the comparative human PK parameter values FLU in PPI 1501 versus those obtained from injection of the simple solution; such data may also be compared to data obtained by injecting humans with the prodrug FA (Table 42).
The human IV PK parameters of FLU in solution were estimated based on the oral PK parameters of FLU and its estimated oral bioavailability (project 1 report, Duan, 2015, Table 42, ref 3-8).

[3] = FLU solution, rats, IV […], NCA, cited from earlier work
[4] = tested on: Human red blood cells (RBC); assay: In vitro haemolysis; assay type: cell-based; conditions: 5 mg/mL, 37° C., 60 min
Experimental: For example suspended RBCs isolated from whole human blood may be mixed with non-formulated cargo molecules or test formulations comprising the cargo molecule at a given final concentration with respect to the cargo molecule incubated at 37° C. for 60 minutes, and centrifuged to remove intact RBCs. […] Human red blood cells (RBC) were isolated by centrifugation from whole blood collected in vaccutainer containing EDTA. […] Freeze-dried formulations were reconstituted in water and then diluted to the desired concentrations with PBS.

[5] = Literature IV PK of FLU solution in rats (Park and Kim; Knihinicki et al); assay type: in vivo; conditions: Park and Kim data fitted to 2 compartmental model
Excerpt: The fitted results obtained in the JRF study were then compared to those in the literature, generated after administering a non-micellar low concentration simple FLU solution IV to rats. This was undertaken to determine potential differences in FLU pharmacokinetics induced by the micellar formulation.
The results from the JRF study were then compared to literature values for FLU PK administered as an IV solution as generated by Park and Kim (1) and Knihinicki et al (2); the comparison is shown in Table 39.
For comparative purposes, the rat PK data for a FLU solution generated by Park and Kim (1) were also fitted to the 2 compartmental model (FIG. 22 and Table 41).

flurbiprofen axetil [FA]
CL [1]: 1.14 L/h
CL2 [1]: 4.40 L/h
Ka [1]: 58 h⁻¹
MRT (est. based on 2 compartment model) [1]: 7.36 h
V [1]: 5.11 L
V2 [1]: 3.28 L

CC(C(=O)O)c1ccc(-c2ccccc2)c(F)c1 (stereo not drawn) [FLU, flurbiprofen]
CL [2]: 0.967 L/h
CL2 [2]: 0.343 L/h
MRT (est. based on 2 compartment model) [2]: 7.43 h
V [2]: 4.984 L
V2 [2]: 2.199 L
Vss ([3]; Knihinicki et al): 0.22 L/kg
Vz ([3]; Knihinicki et al): 0.239 L/kg
t1/2 ([3]; Knihinicki et al): 3.07 h
Vss ([3]; Park & Kim): 0.15678 L/kg
Vz ([3]; Park & Kim): 0.19231 L/kg
t1/2 ([3]; Park & Kim): 2.78 h
absorbance at 540 nm [4]: 0.54±0.03
percent haemolysis ([4]; triplicate ± standard deviation): 92.1±17.2%
t1/2Alpha ([5]; IV […]): 5.4 min
t1/2Beta ([5]; IV […]): 2.73 h
AUC(0-inf) ([5]; rat, plasma, IV 2.5 mg/kg): 51400 ng·h/mL
AUC(0-t) ([5]; rat, plasma, IV 2.5 mg/kg): 45300 ng·h/mL
C0 ([5]; rat, plasma, IV 2.5 mg/kg): 49800 ng/mL
MRT ([5]; rat, plasma, IV 2.5 mg/kg): 3.57 h
clearance ([5]; rat, plasma, IV 2.5 mg/kg): 0.81 mL/min/kg
Vd ([5]; rat, plasma, IV 2.5 mg/kg, read-out: Vss): 0.174 L/kg
